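Cultured in 96-well plates, cells were exposed to test compound for 48 hours across five concentrations. The concentration for 50% growth inhibition is given as GI50. TGI: total growth inhibition.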
What was measured:
Assay in all cases: NCI-60 cell line screen, 48 h
[1] = tested on: MOLT-4 leukemia
[2] = tested on: DU-145 prostate
[3] = tested on: SW-620 colon
[4] = tested on: SF-539 CNS
[5] = tested on: HCC-2998 colon
[6] = tested on: HS 578T breast

Row | Compound | GI50 [1] [µM] | TGI [1] [µM] | GI50 [2] [µM] | TGI [2] [µM] | GI50 [3] [µM] | TGI [3] [µM] | GI50 [4] [µM] | TGI [4] [µM] | GI50 [5] [µM] | TGI [5] [µM] | GI50 [6] [µM] | TGI [6] [µM]
1 | O=c1[nH]c2ccccc2n1-c1n[nH]c2ccccc12 | 17.3 | 84.9 | 34 | > 100 | 39.4 | > 100 | 56.9 | > 100 | 31.9 | > 100 | 23 | > 100
2 | CC(C)C(=O)Oc1cc2c(=O)oc3c(OC(=O)C(C)C)c(OC(=O)C(C)C)cc4c(=O)oc(c1OC(=O)C(C)C)c2c34 | – | > 100 | – | > 100 | – | > 100 | – | > 100 | – | > 100 | – | > 100
3 | O=C(Cc1ccccc1)NN1C(=O)/C(=C\c2ccc(O)cc2)SC1=Nc1ccccc1 | – | > 100 | – | > 100 | – | > 100 | – | > 100 | – | > 100 | – | > 100
4 | O=C(Nc1ccccc1C(=O)N/N=C(\c1ccccc1)c1ccccn1)c1ccc(F)cc1 | 0.284 | > 100 | 0.351 | > 100 | 0.448 | > 100 | 0.298 | – | 0.321 | > 100 | 6.48 | > 100
5 | CC(=O)Oc1ccc(/C=N/NC(N)=S)nc1 | 2.57 | > 100 | 2.36 | 8.38 | 5.59 | > 100 | 2.36 | > 100 | 8.96 | > 100 | – | –
6 | Oc1ccc(Cl)cc1Cc1cc(Cl)ccc1O | 2.86 | 8.83 | 3.81 | 13.8 | 3.04 | 12.4 | 3.8 | 13.8 | 2.36 | 5.78 | 1.91 | 7.35
7 | Cc1cc(Cl)ccc1NS(=O)(=O)c1ccc(-c2cnc(C3CC3)o2)cc1 | 0.405 | > 44.2 | 0.395 | 17.9 | 0.198 | 16.1 | 0.215 | 2.51 | 0.463 | 12 | 0.275 | 22.2
8 | CC1=C(C(=O)Nc2ccc(Cl)c(Cl)c2)C(c2ccccc2O)NC(=O)N1 (stereo unspecified) | > 50 | > 50 | > 50 | > 50 | > 50 | > 50 | 43.7 | > 50 | – | – | 32.2 | > 50
9 | COc1cccc(/C=C/C(=O)c2cc3c(N)c(C(=O)Nc4cccc5ccccc45)sc3nc2C)c1 | 1.46 | > 50 | 1.14 | 2.86 | 0.538 | 3.1 | 1.17 | 2.8 | 1.14 | 2.79 | – | –
10 | COc1ccc(CCN2CCc3c(C)c(C#N)c4nc5ccccc5n4c32)cc1OC | – | – | – | > 100 | – | 97.3 | – | > 100 | – | > 100 | – | 60.6
11 | Cc1cc([N+](=O)[O-])c(C)c(Br)c1C | – | – | – | > 100 | – | > 100 | – | > 100 | – | – | – | > 100
12 | CCOc1cc(-c2ccc[nH]2)[nH]c1/C=C1\N=C(C)C(C(=O)OC)=C1C | – | – | 0.0549 | 1.56 | 0.0321 | 1.55 | 0.059 | 0.968 | 0.0442 | 1.34 | 0.0475 | 0.58
13 | COc1cccc(C2NC(=S)NC(C)=C2C(=O)Nc2ccc(Cl)c(Cl)c2)c1 (stereo unspecified) | > 50 | > 50 | 0.00711 | 12 | 22.3 | > 50 | – | – | – | – | 10.7 | 28.8
14 | OCNCCNc1nc2ccccc2c2[nH]c3ccccc3c12 | 0.809 | > 50 | 0.735 | 2.42 | 0.366 | 2.22 | 0.189 | 0.863 | – | – | 1.46 | 3.87
15 | CC(=O)OC1CC2C(=O)C(=O)C1(C)C2(C)C (stereo unspecified) | – | > 100 | – | > 100 | – | > 100 | – | – | – | > 100 | – | –
16 | C#CCN(Cc1ccc2nc(N)[nH]c(=O)c2c1)c1ccc(C(=O)NC(CCC(=O)O)C(=O)O)cc1 (stereo unspecified) | – | > 100 | – | > 100 | – | > 100 | – | > 100 | – | > 100 | – | –
17 | N=C1C=C(N)C(=O)c2[nH]c(=O)ccc21 | – | – | – | 21.4 | – | 6.7 | – | 3.73 | – | 35.8 | – | > 100
18 | CCN(CC)CCN(C(=O)C(C)(C)C)c1ccccc1N | – | > 100 | – | > 100 | – | > 100 | – | > 100 | – | – | – | –
19 | CC(NC(=O)c1ccccc1)(C(=O)O)C(=O)O | – | > 100 | – | > 100 | – | > 100 | – | > 100 | – | – | – | > 100
20 | CC1OC(OC2CCC3(C=O)C4CCC5(C)C(C6=CC(=O)OC6)CCC5(O)C4CCC3(O)C2)C(O)C(O)C1O (stereo unspecified) | – | 1.6e-05 | – | 1.75e-05 | – | 8.69e-05 | – | 5.65e-05 | – | – | – | > 100
21 | CO[C@@]12[C@@H]3NC3CN1C1=C(C(=O)C(N)=C(C)C1=O)[C@@H]2COC(N)=O (stereo partly specified) | 0.278 | – | – | 11.9 | – | 7.01 | – | – | 0.46 | 2.02 | 6.32 | > 100
